Results taken from ChEMBL document CHEMBL3865811, “Synthesis and biological activities of d-chiro-inositol analogues with insulin-like actions” (2016).

Assays:
3T3-L1 [1] = assay: Induction of 2-deoxy-D-[2,6-3H]glucose uptake in differentiated mouse 3T3L1 cells at 200 uM after 60 mins by liquid scintillation counting relative to basal uptake; type: functional
3T3-L1 [2] = assay: Induction of 2-deoxy-D-[2,6-3H]glucose uptake in differentiated mouse 3T3L1 cells at 200 uM after 60 mins by liquid scintillation counting relative to insulin; type: functional

O[C@H]1[C@H](O)[C@H](O)[C@@H](O)[C@H](O)[C@H]1O
fold change (FC) (3T3-L1 [1]): 1.4 - 2.8
Activity (3T3-L1 [2]): 64%

O[C@H]1[C@H](O)[C@@H](O)[C@H](O)[C@H](O)[C@H]1O
fold change (FC) (3T3-L1 [1]): 1.5 - 3
Activity (3T3-L1 [2]): 43%

O[C@@H]1[C@@H](O)[C@@H](O)C[C@H](O)[C@H]1O
fold change (FC) (3T3-L1 [1]): 1.3
Activity (3T3-L1 [2]): 22%

CCCCO[C@H]1[C@H](O)[C@H](O)[C@@H](O)[C@H](O)[C@H]1O
fold change (FC) (3T3-L1 [1]): 1.4 - 1.5
Activity (3T3-L1 [2]): 8%

O[C@H]1[C@H](O)[C@H](O)C[C@H](O)[C@H]1O
fold change (FC) (3T3-L1 [1]): 1.3
Activity (3T3-L1 [2]): 40%

CCCC(=O)O[C@H]1[C@H](O)[C@@H](O)[C@@H](O)[C@H](O)[C@@H]1O
fold change (FC) (3T3-L1 [1]): 1.3
Activity (3T3-L1 [2]): 19%

OC1[C@@H](O)[C@H](O)C[C@@H](O)[C@@H]1O (stereo partly specified)
fold change (FC) (3T3-L1 [1]): 0.5
Activity (3T3-L1 [2]): -106%

CCCCO[C@H]1[C@@H](O)[C@H](O)[C@H](O)[C@@H](O)[C@@H]1O
fold change (FC) (3T3-L1 [1]): 1.4
Activity (3T3-L1 [2]): 22%
